# According to patent publication US20260306490A1, “PIM1 INHIBITOR FOR TREATING MYELOPROLIFERATIVE NEOPLASMS” (Sumitomo Pharma America, Inc., priority 2022, published 2026):
# Assays:
# PIM1 = settings: read-out: Preclinical IC50, PIM1; cited from earlier work
# MF patients = assay: Phase 1/2 clinical study in MF patients treated with HCl salt of Compound (1) (TP-3654-102); type: in vivo, human; parameters: reduction in IL6 / reduction in IL12p40 / reduction in MMP9 / reduction in EN-RAGE / median TSS reduction from baseline: concentration or dose not given beside the values
# Description: Patients with MF (primary MF, post-PV MF, post-ET MF) and DIPSS intermediate-1, intermediate-2, or high risk were enrolled in a Phase 1/2 clinical study.
# Dose escalation to 960 mg BID and 1440 mg BID is intended.
# Patients had to meet all of the following inclusion criteria to enroll in the study: • 1. Adult (≥18 years of age) • 2. Confirmed pathological diagnosis of primary MF (PMF) or post-PV-MF/postET-MF as per WHO diagnostic criteria and intermediate or high-risk primary or secondary MF based on the Dynamic International Prognostic Scoring System (DIPSS). • 3. Previously treated with a JAK inhibitor and are intolerant, resistant, refractory or lost response to the JAK inhibitor, or are ineligible to be treated with ruxolitinib or fedratinib at the discretion of the investigator. • 4. Grade≥2 bone marrow fibrosis, as confirmed by bone marrow biopsy within 12 weeks prior to Screening. • 5. Fulfill the following laboratory parameters: • a. Platelet count≥25×10^9/L (without the assistance of growth factors or platelet transfusions) • b. Absolute neutrophil count (ANC)≥1×10^9/L without the assistance of granulocyte growth factors. • 6. Peripheral blood blast count<10%. • 7. Eastern Cooperative Oncology Group (ECOG) performance status≤2. • 8. Life expectancy≥3 months. • 9. […] Adequate hepatic function (ALT/AST≤3×ULN, total bilirubin≤1.5×ULN; or ALT/AST≤5×ULN, direct bilirubin≤2×ULN if due to MF); and coagulation ([PT and PTT]≤1.5×ULN). • 11. Agree to provide bone marrow biopsies during the study: at baseline or within 12 weeks prior to enrollment, and every 6 months during treatment. • 12. Capable of providing signed informed consent as described in which includes compliance with the requirements and restrictions listed in the informed consent form (ICF) and in this protocol • 13. […] Show at least 2 symptoms measurable (score≥1) using the Myelofibrosis Symptom Assessment Form (MFSAF), v4.0. • 16. Able to take orally administered medication
# Patients meeting any one of the exclusion criteria were prohibited from participating in the study: • 1. Received previous systemic antineoplastic therapy (including unconjugated therapeutic antibodies, toxin immunoconjugates, ESA, and alpha-interferon) or any experimental therapy within 14 days or 5 half-lives, whichever is longer, before the first dose of study treatment. • 2. Major surgery within 2 weeks before the first dose of either study drug. • 3. Splenic irradiation within 6 months prior to Screening or prior splenectomy. • 4. AML, MDS, or peripheral blasts≥10%. • 5. Prior autologous or allogeneic stem cell transplant at any time. • 6. Eligible for allogeneic bone marrow or stem cell transplantation within 3 months following enrollment (not a candidate or not willing to undergo transplantation or a suitable donor not available are considered as transplant ineligible). • 7. Currently receiving treatment with a prohibited medication that cannot be discontinued at least one week prior to the start of treatment. • 8. Experiencing electrolyte abnormalities of NCI CTCAE Grade≥2 (e.g., serum potassium, magnesium and calcium) unless they can be corrected during screening and are deemed not clinically significant by the Investigator. • 9. History of congestive heart failure, myocardial infarction within the past 6 months prior to Cycle 1/Day 1; left ventricular ejection fraction<45% by echocardiogram or MUGA, unstable arrhythmia, or evidence of ischemia on electrocardiogram (ECG) within 14 days prior to Cycle 1/Day 1. • 10. Corrected QT interval (using Fridericia's correction formula) of >450 msec in men and >470 msec in women. • 11. Central nervous system (CNS) cancer or metastases, meningeal carcinomatosis, malignant seizures, or a disease that either causes or threatens neurologic compromise (e.g., unstable vertebral metastases). • 12. Other invasive malignancies within the last 3 years, except non-melanoma skin cancer, and localized cured prostate and cervical cancer • 13. […]
# [1] = R/R MF, ≥25 × 10^9/L PLT, monotherapy
# [2] = TP-3654-102, R/R MF, monotherapy, N = 23
# [3] = first interim analysis, FIG. 5G
# [4] = first interim analysis, monotherapy, 480 mg QD to 720 mg BID
# [5] = first interim analysis, over treatment duration
# [6] = first interim analysis, treatment duration ≥12 weeks
# [7] = one patient with bone marrow fibrosis reduction
# [8] = second interim analysis, MFSAF v4.0
# [9] = second interim analysis, n = 13
structure (smiles),measurement,setting,value
CC(C)(O)[C@H]1CC[C@H](Nc2ccc3ncc(-c4cccc(C(F)(F)F)c4)n3n2)CC1 [Compound (1)],IC50,PIM1,5 nM
same,"Hem AE (>10%), thrombocytopenia","MF patients; R/R MF, Ph 1",No ≥G3
same,SVR35 at Week 24,MF patients; [1],23%
same,TSS50 at Week 24,MF patients; [1],54%
same,"TEAE Anemia, All Gr",MF patients; [2],13%
same,"TEAE Anemia, ≥3 Gr",MF patients; [2],4.3%
same,"TEAE Neutropenia, All Gr",MF patients; [2],0%
same,"TEAE Neutropenia, ≥3 Gr",MF patients; [2],0%
same,"TEAE Thrombocytopenia, All Gr",MF patients; [2],22%
same,"TEAE Thrombocytopenia, ≥3 Gr",MF patients; [2],13%
same,"patients with myelosuppressive adverse events (anemia, neutropenia, thrombocytopenia)",MF patients; first interim analysis,1 patient
same,time at which cytokine modulation was observed (as early as),MF patients; first interim analysis,≤ 24 h
same,patients with reduced spleen size and reduced symptoms,MF patients; [3],4 patients
same,patients with spleen volume increase and reduced symptoms,MF patients; [3],1 patient
same,patients with spleen volume reduction and increased symptoms,MF patients; [3],1 patient
same,reductions in cytokines vs total symptoms reduction,"MF patients; first interim analysis, cytokine changes available for 7 patients",More reductions in cytokines were observed in patients who had more total symptoms reduction
same,hemoglobin,MF patients; [4],increased in some patients
same,neutrophil counts,MF patients; [4],stable
same,platelet counts,MF patients; [4],stable or increased
same,"spleen volume, median best change",MF patients; [5],−13%
same,"total symptom score, median best change",MF patients; [5],−70%
same,patients with spleen volume reduction,MF patients; [6],Eight out of 10
same,patients with total symptom reduction,MF patients; [6],Nine out of 10
same,"change for platelet count, hemoglobin, and neutrophil reduction","MF patients; for most patients, monotherapy",less than 1 grade
same,reduction in EN-RAGE,MF patients; [7],68%
same,reduction in IL12p40,MF patients; [7],83%
same,reduction in MMP9,MF patients; [7],56%
same,reduction in IL6,"MF patients; one patient with bone marrow fibrosis reduction, printed 1L6",68%
same,bone marrow fibrosis reduction,"MF patients; one patient, on active treatment >18 months",from grade 3 to 2
same,overlapping hematological toxicities (thrombocytopenia and/or anemia),MF patients; relative to toxicities reported for other MF treatments,minimal or no indication of overlapping hematological toxicities
same,patients achieving ≥35% SVR (number),MF patients; second interim analysis,3 of 13
same,median spleen volume change,"MF patients; second interim analysis, 13 evaluable patients",−11%
same,dose limiting toxicities,"MF patients; second interim analysis, 23 patients, 5 dose levels",no dose limiting toxicities
same,median TSS reduction from baseline,MF patients; [8],70%
same,patients with TSS reduction,MF patients; [8],12 out of 13
same,patients with ≥50% TSS reduction (number),MF patients; [8],Seven of 13
same,patients achieving ≥35% SVR (percent),MF patients; [9],23%
same,patients with ≥50% TSS reduction (percent),MF patients; [9],54%
same,patients with ≥50% TSS reduction and durable response for ≥12 weeks,"MF patients; second interim analysis, of seven patients with ≥50% TSS reduction",5 patients
same,patients with spleen volume reduction (SVR),"MF patients; second interim analysis, ≥12 weeks of treatment, 13 evaluable",10 patients
same,doses declared safe,"MF patients; second interim analysis, printed mg BTD",up to 720 mg
